{
  "source": "patent US11384182B2",
  "about": "“Supramolecular polymer composition and method of preparation thereof” (City University of Hong Kong, priority 2019, dated 2022)",
  "key": {"[1]": {"conditions": "cited from earlier work"}, "[2]": {"test": "release of carvacrol in air by weight loss", "format": "physicochemical", "conditions": "at 100 days", "method": "The amount of carvacrol, i.e. the hydrophobic material in the composition, released in air was calculated by weight loss and is illustrated in FIG. 8C. The amount of carvacrol released in water was monitored by UV-vis scanning spectrophotometer (Shimadzu 1700), wherein"}},
  "data": [
    {"smiles": "Cc1ccc(C(C)C)cc1O", "note": "[carvacrol]", "values": [
      {"measurement": "saturation concentration in water", "setting": "[1]", "result": "about 3 mM"},
      {"measurement": "reduction of the original mass", "setting": "[2]", "result": "approximately 40%"}
    ]}
  ]
}
